Values of other authors as cited in patent US20180271949A1, “THERAPEUTIC TREATMENT FOR NEUROTROPHIC KERATOPATHY” (priority 2017, published 2018).

What was measured:
[1] = system: corneal epithelium wound healing; conditions: with substance-P; several pre-clinical studies; Nishida 2009
decubitus ulcers = conditions: topical; Van Ort 1976
[2] = system: experimentally-induced superficial skin wounds; conditions: topical; diabetic and non-diabetic individuals; Greenway 1999
corneal abrasions = conditions: topical, diabetic rats
[3] = system: sub-basal plexus corneal nerves; conditions: topical; diabetic mice; Chen 2013
[4] = system: cultured sheets of corneal epithelial cells; conditions: Shanley 2004
corneal ulcers = conditions: systemic administration; humans; Aynsley 1945

Substance | promotion of corneal epithelium wound healing [1] | healing of decubitus ulcers (decubitus ulcers) | healing of experimentally-induced superficial skin wounds [2] | corneal sensation (corneal abrasions; Zagon 2007) | wound healing after corneal abrasions (corneal abrasions; Zagon 2007, Klocek 2009) | loss of sub-basal plexus corneal nerves [3] | cell migration and closure of artificial wounds [4] | healing of corneal ulcers (corneal ulcers)
IGF-1: Insulin-like growth factor-1, modulator of corneal wound healing | act synergistically with substance-P |  |  |  |  |  |  | 
insulin: insulin, topical, systemic or added in vitro, as used in cited literature studies |  | improve healing | improve healing | improves corneal sensation | improves wound healing | slow the loss | promoted cell migration and closure of artificial wounds | improved healing
